{"source": "patent EP0018134B1", "about": "“Dihydropyridine derivatives, processes for their preparation and pharmaceutical compositions containing them” (BEECHAM GROUP PLC, priority 1979, dated 1980)", "data": [{"system": "Fasted Mice", "experiment": "Activity on Glucose Tolerance in Fasted Mice", "format": "in vivo", "conditions": "mice fasted 24 hours, 8 per group; dose 0.2 mmol/kg body weight orally in 1% aqueous carboxymethyl cellulose; glucose 1 g/kg sub-cutaneous 30 minutes later; vehicle control (dose 0) value in the row above; asterisks = significance vs controls", "protocol": "For this assay mice were fasted for 24 hours before the experiment and then randomised so that each treatment group contained 8 mice. The compounds were dosed orally in 1% aqueous carboxymethyl cellulose (10 ml/kg body weight), and 30 minutes later glucose (1 g/kg) was administered by the sub-cutaneous route. Blood samples for glucose analysis were taken from the tail 60 minutes after glucose administration; the results are shown in the table below.\nA standard system for indicating the significance of results with respect to the controls (dose = zero mmol/kg) which received the 1% aqueous carboxymethyl cellulose vehicle only, is as follows: • ** P < 0.05 • *** P < 0.01 • **** P < 0.001\nIn the following Table, column A represents the dose of compound (mmol/kg body weight) and column B represents the blood glucose concentration (mmol/litre) 60 minutes after sub-cutaneous glucose load.", "values": [{"smiles": "CC1CN(C(=Nc2ccccc2)N=c2ccccn2C)CC(C)O1", "note": "(stereo not shown) [Example 3, N-(1,2-dihydro-1-methyl-2-pyridylidene)-N'-phenyl-4-(2,6-dimethylmorpholine)-carboxamidine]", "blood glucose concentration (mmol/litre) 60 minutes after sub-cutaneous glucose load": "3.48 mmol/L"}, {"smiles": "Cn1ccccc1=NC(=Nc1ccccc1)NCc1ccccc1", "note": "[Example 4, N-benzyl-N'-(1,2-dihydro-1-methyl-2-pyridylidene)-N\"-phenylguanidine]", "blood glucose concentration (mmol/litre) 60 minutes after sub-cutaneous glucose load": "5.36 ** mmol/litre"}, {"smiles": "CCN(CC)C(=Nc1ccccc1)N=c1c(C)cccn1C.I", "note": "[Example 10, N,N-diethyl-N'-(1,2-dihydro-1,3-dimethyl-2-pyridylidene)-N\"-phenylguanidine hydroiodide]", "blood glucose concentration (mmol/litre) 60 minutes after sub-cutaneous glucose load": "5.54 *** mmol/litre"}, {"smiles": "Cc1ccn(C)c(=NC(=Nc2ccccc2)N2CCOCC2)c1.I", "note": "[Example 11, N-(1,2-dihydro-1,4-dimethyl-2-pyridylidene)-N'-phenyl-4-morpholinecarboxamidine hydroiodide]", "blood glucose concentration (mmol/litre) 60 minutes after sub-cutaneous glucose load": "4.47 ** mmol/litre"}, {"smiles": "Cn1cc(Br)ccc1=NC(=Nc1ccccc1)N1CCOCC1.I", "note": "[Example 12, N-(5-bromo-1,2-dihydro-1-methyl-2-pyridylidene)-N'-phenyl-4-morpholinecarboxamidine hydroiodide]", "blood glucose concentration (mmol/litre) 60 minutes after sub-cutaneous glucose load": "3.52 *** mmol/litre"}, {"smiles": "COC(=O)c1ccc(=NC(=Nc2ccccc2)N2CCOCC2)n(C)c1.I", "note": "[Example 13, N-(5-carbomethoxy-1,2-dihydro-1-methyl-2-pyridylidene)-N'-phenyl-4-morpholinecarboxamidine hydroiodide]", "blood glucose concentration (mmol/litre) 60 minutes after sub-cutaneous glucose load": "3.36 ** mmol/litre"}, {"smiles": "Cc1ccc(=NC(=Nc2ccccc2)N2CCOCC2)n(C)c1", "note": "[Example 14, N-(1,2-Dihydro-1,5-dimethyl-2-pyridylidene)-N'-phenyl-4-morpholinecarboxamidine]", "blood glucose concentration (mmol/litre) 60 minutes after sub-cutaneous glucose load": "2.53 **** mmol/litre"}]}]}
